Test results as given in PubChem BioAssay (NCI).
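Where inhibition never reached the appropriate level, the endpoint shown equals the highest concentration tested. Otherwise, values were interpolated linearly from a five-concentration, 48-hour dose response in 96-well plates. TGI: concentration producing complete growth inhibition.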

Legend:
Experiment in all cases: inhibition of tumour cell growth, NCI panel, 48 h
[1] = system: A498 renal
[2] = system: ACHN renal
[3] = system: BT-549 breast
[4] = system: CAKI-1 renal
[5] = system: COLO 205 colon
[6] = system: DU-145 prostate
[7] = system: EKVX NSCLC
[8] = system: HCT-15 colon
[9] = system: HOP-62 NSCLC
[10] = system: HOP-92 NSCLC
[11] = system: KM12 colon
[12] = system: M14 melanoma
[13] = system: MALME-3M melanoma
[14] = system: MCF7 breast
[15] = system: MDA-MB-435
[16] = system: MDA-N
[17] = system: NCI-H23 lung
[18] = system: NCI-H522 lung
[19] = system: NCI/ADR-RES ovarian
[20] = system: OVCAR-4 ovarian
[21] = system: PC-3 prostate
[22] = system: SF-268 CNS
[23] = system: SF-295 CNS
[24] = system: SK-MEL-2 melanoma
[25] = system: SK-MEL-28 melanoma
[26] = system: SK-OV-3 ovarian
[27] = system: SN12C renal
[28] = system: SNB-75 CNS
[29] = system: SR leukemia
[30] = system: SW-620 colon
[31] = system: T-47D breast
[32] = system: TK-10 renal
[33] = system: U251 CNS
[34] = system: UACC-62 melanoma
[35] = system: UO-31 renal
[36] = system: 786-0 renal
[37] = system: A549 NSCLC
[38] = system: CCRF-CEM leukemia
[39] = system: HCT-116 colon
[40] = system: HL-60(TB) leukemia
[41] = system: HS 578T breast
[42] = system: HT29 colon
[43] = system: IGROV1 ovarian
[44] = system: K-562 leukemia
[45] = system: LOX IMVI melanoma
[46] = system: MDA-MB-231 breast
[47] = system: MOLT-4 leukemia
[48] = system: NCI-H226 lung
[49] = system: NCI-H460 lung
[50] = system: OVCAR-3 ovarian
[51] = system: OVCAR-5 ovarian
[52] = system: OVCAR-8 ovarian
[53] = system: RPMI-8226 leukemia
[54] = system: RXF 393 renal
[55] = system: SF-539 CNS
[56] = system: SK-MEL-5 melanoma
[57] = system: SNB-19 CNS
[58] = system: UACC-257 melanoma
[59] = system: HCC-2998 colon

COc1cc2cc(C(=O)N3CC(CCl)c4c3cc(NCCN)c3ccccc43)[nH]c2c(OC)c1OC (configuration not stated)
TGI [1]: < 0.0136 µM
TGI [2]: < 0.01 µM
TGI [3]: 0.0817 µM
TGI [4]: < 0.01 µM
TGI [5]: < 0.01 µM
TGI [6]: 1.07 µM
TGI [7]: 0.0789 µM
TGI [8]: 0.0536 µM
TGI [9]: < 0.0221 µM
TGI [10]: < 0.01 µM
TGI [11]: < 0.01 µM
TGI [12]: < 0.0121 µM
TGI [13]: < 0.0134 µM
TGI [14]: < 0.01 µM
TGI [15]: < 0.01 µM
TGI [16]: < 0.0203 µM
TGI [17]: < 0.01 µM
TGI [18]: < 0.01 µM
TGI [19]: 0.0799 µM
TGI [20]: 0.054 µM
TGI [21]: < 0.0328 µM
TGI [22]: 0.484 µM
TGI [23]: < 0.0468 µM
TGI [24]: < 0.01 µM
TGI [25]: 0.564 µM
TGI [26]: 1.42 µM
TGI [27]: < 0.017 µM
TGI [28]: 0.0479 µM
TGI [29]: > 100 µM
TGI [30]: 0.311 µM
TGI [31]: 1.07 µM
TGI [32]: < 0.0181 µM
TGI [33]: < 0.01 µM
TGI [34]: < 0.01 µM
TGI [35]: < 0.0132 µM

CC(=O)C=NCC(=O)O
TGI [36]: > 100 µM
TGI [1]: > 100 µM
TGI [37]: > 100 µM
TGI [2]: > 100 µM
TGI [3]: > 100 µM
TGI [4]: > 100 µM
TGI [38]: > 100 µM
TGI [5]: > 100 µM
TGI [6]: > 100 µM
TGI [7]: > 100 µM
TGI [39]: > 100 µM
TGI [8]: > 100 µM
TGI [40]: > 100 µM
TGI [9]: > 100 µM
TGI [10]: > 100 µM
TGI [41]: > 100 µM
TGI [42]: > 100 µM
TGI [43]: > 100 µM
TGI [44]: > 100 µM
TGI [11]: > 100 µM
TGI [45]: > 100 µM
TGI [12]: > 100 µM
TGI [13]: > 100 µM
TGI [14]: > 100 µM
TGI [46]: > 100 µM
TGI [15]: > 100 µM
TGI [16]: > 100 µM
TGI [47]: > 100 µM
TGI [48]: > 100 µM
TGI [17]: > 100 µM
TGI [49]: > 100 µM
TGI [18]: > 100 µM
TGI [19]: > 100 µM
TGI [50]: > 100 µM
TGI [20]: > 100 µM
TGI [51]: > 100 µM
TGI [52]: > 100 µM
TGI [21]: > 100 µM
TGI [53]: > 100 µM
TGI [54]: > 100 µM
TGI [22]: > 100 µM
TGI [23]: > 100 µM
TGI [55]: > 100 µM
TGI [24]: > 100 µM
TGI [25]: > 100 µM
TGI [56]: > 100 µM
TGI [26]: > 100 µM
TGI [27]: > 100 µM
TGI [57]: > 100 µM
TGI [28]: > 100 µM
TGI [29]: > 100 µM
TGI [30]: > 100 µM
TGI [31]: > 100 µM
TGI [32]: > 100 µM
TGI [33]: > 100 µM
TGI [58]: > 100 µM
TGI [34]: > 100 µM

COc1ccc2c(c1)C1OCCNC1CC2 (configuration not stated)
TGI [36]: > 100 µM
TGI [1]: > 100 µM
TGI [37]: > 100 µM
TGI [2]: > 100 µM
TGI [3]: > 100 µM
TGI [4]: > 100 µM
TGI [38]: > 100 µM
TGI [5]: > 100 µM
TGI [6]: > 100 µM
TGI [7]: > 100 µM
TGI [39]: > 100 µM
TGI [8]: > 100 µM
TGI [40]: > 100 µM
TGI [9]: > 100 µM
TGI [41]: > 100 µM
TGI [42]: > 100 µM
TGI [43]: > 100 µM
TGI [44]: > 100 µM
TGI [11]: > 100 µM
TGI [45]: > 100 µM
TGI [12]: > 100 µM
TGI [13]: > 100 µM
TGI [14]: > 100 µM
TGI [46]: > 100 µM
TGI [15]: > 100 µM
TGI [16]: > 100 µM
TGI [47]: > 100 µM
TGI [48]: > 100 µM
TGI [17]: > 100 µM
TGI [18]: > 100 µM
TGI [19]: > 100 µM
TGI [51]: > 100 µM
TGI [52]: > 100 µM
TGI [21]: > 100 µM
TGI [53]: > 100 µM
TGI [54]: > 100 µM
TGI [22]: > 100 µM
TGI [23]: > 100 µM
TGI [55]: > 100 µM
TGI [24]: > 100 µM
TGI [25]: > 100 µM
TGI [56]: > 100 µM
TGI [26]: > 100 µM
TGI [27]: > 100 µM
TGI [57]: > 100 µM
TGI [28]: > 100 µM
TGI [29]: > 100 µM
TGI [30]: > 100 µM
TGI [31]: > 100 µM
TGI [32]: > 100 µM
TGI [33]: > 100 µM
TGI [58]: > 100 µM
TGI [34]: > 100 µM
TGI [35]: > 100 µM

O=c1cc(N2CCCC2)[nH]c(=O)n1-c1ccc(F)cc1
TGI [36]: > 100 µM
TGI [1]: > 100 µM
TGI [37]: > 100 µM
TGI [2]: > 100 µM
TGI [3]: > 100 µM
TGI [4]: > 100 µM
TGI [38]: > 100 µM
TGI [5]: > 100 µM
TGI [6]: > 100 µM
TGI [7]: > 100 µM
TGI [59]: > 100 µM
TGI [39]: > 100 µM
TGI [8]: > 100 µM
TGI [40]: > 100 µM
TGI [9]: > 100 µM
TGI [10]: > 100 µM
TGI [41]: > 100 µM
TGI [42]: > 100 µM
TGI [43]: > 100 µM
TGI [44]: > 100 µM
TGI [11]: > 100 µM
TGI [45]: > 100 µM
TGI [12]: > 100 µM
TGI [13]: > 100 µM
TGI [14]: > 100 µM
TGI [46]: > 100 µM
TGI [15]: > 100 µM
TGI [16]: > 100 µM
TGI [47]: > 100 µM
TGI [48]: 50.8 µM
TGI [17]: > 100 µM
TGI [49]: > 100 µM
TGI [18]: > 100 µM
TGI [19]: > 100 µM
TGI [50]: > 100 µM
TGI [20]: > 100 µM
TGI [51]: > 100 µM
TGI [52]: > 100 µM
TGI [21]: > 100 µM
TGI [53]: > 100 µM
TGI [54]: > 100 µM
TGI [22]: > 100 µM
TGI [23]: > 100 µM
TGI [55]: > 100 µM
TGI [24]: > 100 µM
TGI [25]: > 100 µM
TGI [26]: > 100 µM
TGI [27]: > 100 µM
TGI [57]: > 100 µM
TGI [28]: > 100 µM
TGI [30]: > 100 µM
TGI [31]: > 100 µM
TGI [32]: > 100 µM
TGI [33]: > 100 µM
TGI [58]: > 100 µM
TGI [34]: > 100 µM
